Experimental data reported in paper PMC7795425, “Synthesis and Biological Activity of Brassinosteroid Analogues with a Nitrogen-Containing Side Chain” (International Journal of Molecular Sciences, 2020).
Entries after “also recorded” stand apart in the source; their conditions may differ.

What was measured:
[1] = Calcein AM cytotoxicity assay, CEM; assay type: cell-based; details: human, CEM T-lymphoblastic leukemia cells, IC50 > 50 µM means inactive, read-out: Cytotoxic activity IC50
Experimental: (§1) The effect of the prepared BRs derivatives on the viability (in Calcein AM assays) of BJ human fibroblasts (as an example of a “normal” cell line) and human cancer cell lines of various histopathological origins, including: T-lymphoblastic leukemia CEM, breast carcinoma MCF7 and cervical carcinoma cell line HeLa, was also studied. Cells of all these lines were exposed to six 3-fold dilutions of each drug for 72 h prior to determination of cell survival. The IC50 (concentration leading to 50% inhibition of viability) values obtained from the Calcein AM cytotoxicity assay were calculated. […] All tested BR nitrogen-containing derivatives had no detectable activity, even when tested in concentrations of up to 50 µM.
(§2) The screening cell lines: T-lymphoblastic leukemia CEM; breast carcinoma MCF7 (estrogen-sensitive); cervical carcinoma cell line HeLa; and human foreskin fibroblasts BJ, were obtained from the American Type Culture Collection (Manassas, VA, USA). Cells were cultured in DMEM (Dulbecco’s Modified Eagle Medium, Sigma, St. Louis, MO, USA). Media used were supplemented with 10% fetal bovine serum, 2mM L-glutamine and 1% penicillin–streptomycin. The cell lines were maintained under standard cell culture conditions at 37 °C and 5% CO2 in a humid environment.
(§3) Cells were subcultured twice or three times a week using the standard trypsinization procedure. Cytotoxicity in cancer cell lines after 72 h was determined as described earlier. Control cultures were treated with DMSO alone, and the final concentration of DMSO in the mixture never exceeded 0.6%. Six serial 3-fold dilutions of the test substances were added at time zero in 20 μL aliquots to the microtiter plate wells and the highest final concentration in the wells was 50 μM.
(§4) Table S3: Cytotoxic activities, IC50 (µM/L)a, of compounds in three tumor and one normal fibroblast
(§5) Compound CEM MCF7 HeLa BJ
(§6) a The lowest concentration that kills 50% of cells.
(§7) b Increase of cell proliferation.

[2] = system: Arabidopsis thaliana L. (Columbia ecotype, Col-0) seedlings; assay: Arabidopsis root sensitivity bioassay; assay type: in vivo; details: for root length, mean: 7-day-old seedlings
Experimental: Several bioassays such as the first bean internode, root growth and rice lamina inclination have been developed to evaluate the growth-promoting activity of BR derivatives. In this work, the activity of new BR analogues was evaluated using the Arabidopsis root sensitivity test because of its simplicity and high sensitivity for BRs.. The characteristic effect of exogenously applied BRs on light-grown Arabidopsis is dose-dependent—BRs in higher concentrations cause inhibition of root growth; vice versa, low concentrations are stimulating. The results obtained for 24-epiBL, which was used as a positive control, and the BR derivatives are shown in Figure 2, Figure 3 and Figure S21. […] A similar trend was shown for dimethylammonium hydrochloride 22a and morpholinium hydrochloride 22e with a long side chain. For numerical values of the average, SD and p-value, see Table S2.
The biological activity of the new BRs derivatives was tested by an Arabidopsis sensitivity bioassay which was performed according to [28]. Briefly, seedlings of Arabidopsis thaliana L. (Columbia ecotype, Col-0) were stratified for 2 days at 4 °C and germinated on vertical half-strength Murashige and Skoog (1% w/v sucrose) agar at 22 °C in a 16 h/8 h light–dark cycle. The plates contained concentrations of 24-epiBL (as positive control) and BR derivatives ranging from 0.1 to 10 nM, respectively 100 nM (for selected derivatives only). After 7 days, roots were straightened on solid media plates and scanned with an Epson high-resolution scanner. The entire root length was measured with ImageJ (http://rsbweb.nih.gov/ij/). For each treatment, more than 15 seedlings were analyzed in two biological repeats, and p-values were calculated with the two-tailed Student t-test using Excel software.
(§8) Figure 2 Effect of selected brassinosteroid derivatives on the inhibition of Arabidopsis root length. Seven-day-old Arabidopsis thaliana seedlings (Columbia ecotype, Col-0) were treated with DMSO as control/24epiBL/BR short side chain derivatives; (A)—amides, (B)—amines, (C)—ammonium hydrochlorides. For each treatment, more than 15 seedlings were analyzed in two biological repeats. Error bars represent SD. Asterisks represent significant changes (t-test); * represents p-value < 0.05, in comparison to control.
as §8, with “Figure 3” for “Figure 2”, “control/24epiBL/BR long” for “control/24epiBL/BR short”, “(A)—amides, (B)—ammonium” for “(A)—amides, (B)—amines, (C)—ammonium”
Table S2: Data for figure 2, 3, and S21. P value <0.05(t-test), comparison to control.
control (mean ± SD) 16.3 ± 1.21
*only selected compounds were tested
mean(mm) SD t-test mean (mm) SD t-test mean (mm) SD t-test mean (mm) SD t-test
(1 picture or pasted object on this page, not shown here)

[3] = Calcein AM cytotoxicity assay, HeLa; assay type: cell-based; details: human, HeLa cervical carcinoma cells, IC50 > 50 µM means inactive, read-out: Cytotoxic activity IC50
Experimental: as §1, §2, §3, §4, §5, §6, §7

[4] = Calcein AM cytotoxicity assay, MCF7; assay type: cell-based; details: human, MCF7 breast carcinoma cells (estrogen-sensitive), MCF7, 72 h, IC50 > 50 µM means inactive, read-out: Cytotoxic activity IC50
Experimental: as §1, §2, §3, §4, §5, §6, §7

[5] = Calcein AM cytotoxicity assay, BJ; assay type: cell-based; details: human, BJ foreskin fibroblasts (normal cell line), IC50 > 50 µM means inactive, read-out: Cytotoxic activity IC50
Experimental: as §1, §2, §3, §4, §5, §6, §7

Row | Compound | melting point | IC50 at 72 h [1] [µM] | root length, mean ([2]; 0.1 nM, control 16.3 ± 1.21) [mm] | root length, mean ([2]; 1 nM, control 16.3 ± 1.21) [mm] | root length, mean ([2]; 10 nM, control 16.3 ± 1.21) [mm] | IC50 at 72 h [3] [µM] | IC50 at 72 h [4] [µM] | IC50 at 72 h [5] [µM] | elongation of roots (growth-promoting activity) compared to the control ([2]; low concentrations (0.1 and 1 nM)) | root length, mean ([2]; 100 nM (only selected compounds), control 14.61 ± 0.85) [mm]
1 | C[C@H](C(=O)N1CCCC1)[C@H]1CC[C@H]2[C@@H]3CC(=O)[C@H]4C[C@H](O)[C@H](O)C[C@]4(C)[C@H]3CC[C@]12C [8c, 1-((20S)-2α,3α-dihydroxy-6-oxo-5α-pregnane-20-carbonyl)pyrrolidine] | > 180 °C (dec.) | > 50 | 17.61 | 18.58 | 15.97 | > 50 | > 50 | > 50 | – | –
2 | C[C@H](C(=O)N1CCCCC1)[C@H]1CC[C@H]2[C@@H]3CC(=O)[C@H]4C[C@H](O)[C@H](O)C[C@]4(C)[C@H]3CC[C@]12C [8d, 1-((20S)-2α,3α-dihydroxy-6-oxo-5α-pregnane-20-carbonyl)piperidine] | > 230 °C (dec.) | > 50 | 17.11 | 15.97 | 14.18 | > 50 | > 50 | > 50 | – | –
3 | C[C@H](C(=O)N1CCOCC1)[C@H]1CC[C@H]2[C@@H]3CC(=O)[C@H]4C[C@H](O)[C@H](O)C[C@]4(C)[C@H]3CC[C@]12C [8e, 4-((20S)-2α,3α-dihydroxy-6-oxo-5α-pregnane-20-carbonyl)morpholine] | > 270 °C (dec.) | > 50 | 17.77 | 17.44 | 15.16 | > 50 | > 50 | > 50 | slight elongation of roots; also recorded: interesting growth-promoting activity | –
4 | C[C@H](CN(C)C)[C@H]1CC[C@H]2[C@@H]3CC(=O)[C@H]4C[C@H](O)[C@H](O)C[C@]4(C)[C@H]3CC[C@]12C [15a, (20S)-20-(N,N-dimethylaminomethyl)-2α,3α-dihydroxy-5α-pregnane-6-one] | 219 to 221 °C | > 50 | 14.83 | 14.29 | 14.34 | > 50 | > 50 | > 50 | – | –
5 | CCN(CC)C[C@@H](C)[C@H]1CC[C@H]2[C@@H]3CC(=O)[C@H]4C[C@H](O)[C@H](O)C[C@]4(C)[C@H]3CC[C@]12C [15b, (20S)-20-(N,N-diethylaminomethyl)-2α,3α-dihydroxy-5α-pregnane-6-one] | > 190 °C (dec.) | > 50 | 14.93 | 16.13 | 14.67 | > 50 | > 50 | > 50 | – | 13.903
